In patent US4053466A, “(E)-2-[p-(β-substituted-vinyl)phenyl]alkanoic acids” (Kohjin Co., Ltd., priority 1974, dated 1977):

Experiments:
[1] = Farmaco. Edizione Scientifica, 11, 167 (1956); cited from earlier work
[2] = test system: rabbit platelet-rich plasma; experiment: inhibition of collagen-induced platelet aggregation; format: cell-based; settings: 10^-4 M, 0.02N NaOH, 3 minute incubation
Method: The activity was evaluated after a 3 minute incubation of a mixture of the platelet aggregation inhibitor and rabbit platelet-rich plasma. […] Accordingly,the relative potency of inhibition of the test compound to aspirin (RASP) at the same concentration was chosen as a direct measure of inhibition potency.

[3] = test system: carrageenin-induced hind paw edema; experiment: anti-inflammatory activity, carrageenin-induced hind paw edema; format: in vivo, rat (male Wistar); settings: for number of positive rats: inhibition of 25% or more vs control at 3 hours; for ED50: Rattus norvegicus, po, carrageenin edema, positive = inhibition of 25% or more at 3 hours
Method: The anti-inflammatory activity of the compounds against carrageenin-inducededema was determined according to procedure described in C. A. Winter et al., Proc. Soc. Exp. Biol. Med., 111, 544 (1962). Male Wistar rats, each weighing 100 to 120 g were used. Hind paw edema was induced by sub-cutaneous injection of 0.1 ml of 1% carrageenin solution into the left foot pad of each rat. Hind paw volume was measured before and after challenge of carrageenin by immersion of the hind paw down to the lateral malleolus into a glass cylinder containing water. Each dose of the test compound was orally administered one hour before challenge of carrageenin.
ED50 -value was calculated from the number of positive animals showing an inhibitory activity of 25% or more than the matched control group at 3 hours after carrageenin challenge.

[4] = test system: phenylquinone-induced writhing; experiment: analgesic activity, Phenylquinone-Writhing Syndrome method; format: in vivo, mouse (ddN strain); settings: for number of positive mice: fewer writhings than half of control; for ED50: Mus musculus, po, phenylquinone writhing, positive = fewer writhings than half of control
Method: Analgesic activity was determined according to the Phenylquinone-Writhing Syndrome method. ddN strain mice, each weighing about 18 to 22 g were used. Chemical pain was induced by an intraperitoneal injection of 0.1 ml/10 g body weight of 0.03% phenylquinone in 5% aqueous ethanol into the mice. The number of writhings was measured for 15 minutes from 5 minutes after challenge of phenylquinone. Each dose of the drug was given 30 minutes before challenge of phenylquinone.
Ed50 -value was calculated from the number of positive animals showing fewer writhings than half of the matched control group.

Structure (SMILES): O=C(O)Cc1ccc(C=Cc2ccccc2)cc1 [4-stilbene-acetic acid]
- anti-cholesterinemic activity [1]: anti-cholesterinemic activity

Structure (SMILES): O=C(O)Cc1ccc(/C=C/c2cccs2)cc1 [Example 4, (E)-p-(β-2-Thienylvinyl)phenylacetic Acid]
- RASP (relative potency of inhibition of the test compound to aspirin) [2]: 1.0

Structure (SMILES): CC(C)Cc1ccc(CC(=O)O)cc1 [p-Isobutylphenylacetic acid, reference compound]
- RASP (relative potency of inhibition of the test compound to aspirin) [2]: 0.5

Structure (SMILES): CC(C(=O)O)c1ccc(/C=C/c2cccs2)cc1 (stereo not drawn) [XG-28, (E)-2-[p-(β-2-Thienylvinyl)phenyl]propionic Acid]
- Hind Paw Swelling, Mean ± S.E. ([3]; 1 mg/kg p.o., 2 hours): 73.7 ± 3.7%
- Percent Inhibition of hind paw swelling ([3]; 1 mg/kg p.o., 2 hours): 2.4%
- Hind Paw Swelling, Mean ± S.E. ([3]; 1 mg/kg p.o., 3 hours): 73.9 ± 2.6%
- Percent Inhibition of hind paw swelling ([3]; 1 mg/kg p.o., 3 hours): -1.0%
- number of positive rats ([3]; 1 mg/kg p.o.): 0
- Hind Paw Swelling, Mean ± S.E. ([3]; 2.5 mg/kg p.o., 2 hours): 67.0 ± 2.6%
- Percent Inhibition of hind paw swelling ([3]; 2.5 mg/kg p.o., 2 hours): 11.3%
- Hind Paw Swelling, Mean ± S.E. ([3]; 2.5 mg/kg p.o., 3 hours): 70.12 ± 2.1%
- Percent Inhibition of hind paw swelling ([3]; 2.5 mg/kg p.o., 3 hours): 4.0%
- number of positive rats ([3]; 2.5 mg/kg p.o.): 0
- Hind Paw Swelling, Mean ± S.E. ([3]; 5 mg/kg p.o., 2 hours): 62.9 ± 3.2%
- Percent Inhibition of hind paw swelling ([3]; 5 mg/kg p.o., 2 hours): 16.8%
- Hind Paw Swelling, Mean ± S.E. ([3]; 5 mg/kg p.o., 3 hours): 68.2 ± 2.7%
- Percent Inhibition of hind paw swelling ([3]; 5 mg/kg p.o., 3 hours): 6.7%
- number of positive rats ([3]; 5 mg/kg p.o.): 1
- Hind Paw Swelling, Mean ± S.E. ([3]; 10 mg/kg p.o., 2 hours): 60.5 ± 2.3%
- Percent Inhibition of hind paw swelling ([3]; 10 mg/kg p.o., 2 hours): 19.8%
- Hind Paw Swelling, Mean ± S.E. ([3]; 10 mg/kg p.o., 3 hours): 65.7 ± 2.0%
- Percent Inhibition of hind paw swelling ([3]; 10 mg/kg p.o., 3 hours): 10.1%
- number of positive rats ([3]; 10 mg/kg p.o.): 0
- Hind Paw Swelling, Mean ± S.E. ([3]; 20 mg/kg p.o., 2 hours): 50.7 ± 3.7%
- Percent Inhibition of hind paw swelling ([3]; 20 mg/kg p.o., 2 hours): 33.6%
- Hind Paw Swelling, Mean ± S.E. ([3]; 20 mg/kg p.o., 3 hours): 56.0 ± 4.1%
- Percent Inhibition of hind paw swelling ([3]; 20 mg/kg p.o., 3 hours): 25.2%
- number of positive rats ([3]; 20 mg/kg p.o.): 6
- Hind Paw Swelling, Mean ± S.E. ([3]; 40 mg/kg p.o., 2 hours): 46.8 ± 2.6%
- Percent Inhibition of hind paw swelling ([3]; 40 mg/kg p.o., 2 hours): 38.7%
- Hind Paw Swelling, Mean ± S.E. ([3]; 40 mg/kg p.o., 3 hours): 48.6 ± 3.1%
- Percent Inhibition of hind paw swelling ([3]; 40 mg/kg p.o., 3 hours): 35.1%
- number of positive rats ([3]; 40 mg/kg p.o.): 8
- Hind Paw Swelling, Mean ± S.E. ([3]; 80 mg/kg p.o., 2 hours): 49.8 ± 2.6%
- Percent Inhibition of hind paw swelling ([3]; 80 mg/kg p.o., 2 hours): 31.3%
- Hind Paw Swelling, Mean ± S.E. ([3]; 80 mg/kg p.o., 3 hours): 49.3± 2.8%
- Percent Inhibition of hind paw swelling ([3]; 80 mg/kg p.o., 3 hours): 30.9%
- number of positive rats ([3]; 80 mg/kg p.o.): 7
- ED50 [3]: 23.3 mg/kg
- Inhibition in (%) of writhing ([4]; 0.5 mg/kg p.o.): 13.5%
- Number of Writhings/15 min., Mean ± S.E. ([4]; 0.5 mg/kg p.o.): 16.8 ± 2.1
- number of positive mice ([4]; 0.5 mg/kg p.o.): 1
- Inhibition in (%) of writhing ([4]; 5 mg/kg p.o.): 25.8%
- Number of Writhings/15 min., Mean ± S.E. ([4]; 5 mg/kg p.o.): 14.4 ± 6.0
- number of positive mice ([4]; 5 mg/kg p.o.): 2
- Inhibition in (%) of writhing ([4]; 10 mg/kg p.o.): 29.4%
- Number of Writhings/15 min., Mean ± S.E. ([4]; 10 mg/kg p.o.): 13.7 ± 2.4
- number of positive mice ([4]; 10 mg/kg p.o.): 2
- Inhibition in (%) of writhing ([4]; 25 mg/kg p.o.): 71.1%
- Number of Writhings/15 min., Mean ± S.E. ([4]; 25 mg/kg p.o.): 5.6 ± 1.8
- number of positive mice ([4]; 25 mg/kg p.o.): 7
- Inhibition in (%) of writhing ([4]; 50 mg/kg p.o.): 52.1%
- Number of Writhings/15 min., Mean ± S.E. ([4]; 50 mg/kg p.o.): 9.3 ± 1.6
- number of positive mice ([4]; 50 mg/kg p.o.): 4
- Inhibition in (%) of writhing ([4]; 100 mg/kg p.o.): 63.9%
- Number of Writhings/15 min., Mean ± S.E. ([4]; 100 mg/kg p.o.): 7.0 ± 2.0
- number of positive mice ([4]; 100 mg/kg p.o.): 9
- Inhibition in (%) of writhing ([4]; 200 mg/kg p.o.): 60.3%
- Number of Writhings/15 min., Mean ± S.E. ([4]; 200 mg/kg p.o.): 7.7 ± 1.2
- number of positive mice ([4]; 200 mg/kg p.o.): 5
- ED50 [4]: 14.1 mg/kg
- RASP (relative potency of inhibition of the test compound to aspirin) [2]: 1.6

Structure (SMILES): CC(C)Cc1ccc(C(C)C(=O)O)cc1 (stereo not shown) [Ibuprofen, 2-(p-isobutylphenyl)propionic acid, reference compound]
- Hind Paw Swelling, Mean ± S.E. ([3]; 10 mg/kg p.o., 2 hours): 57.4 ± 3.9%
- Percent Inhibition of hind paw swelling ([3]; 10 mg/kg p.o., 2 hours): 13.6%
- Hind Paw Swelling, Mean ± S.E. ([3]; 10 mg/kg p.o., 3 hours): 60.8 ± 4.7%
- Percent Inhibition of hind paw swelling ([3]; 10 mg/kg p.o., 3 hours): 15.5%
- number of positive rats ([3]; 10 mg/kg p.o.): 1
- Hind Paw Swelling, Mean ± S.E. ([3]; 20 mg/kg p.o., 2 hours): 52.6 ± 3.4%
- Percent Inhibition of hind paw swelling ([3]; 20 mg/kg p.o., 2 hours): 20.9%
- Hind Paw Swelling, Mean ± S.E. ([3]; 20 mg/kg p.o., 3 hours): 56.2 ± 2.7%
- Percent Inhibition of hind paw swelling ([3]; 20 mg/kg p.o., 3 hours): 21.9%
- number of positive rats ([3]; 20 mg/kg p.o.): 4
- Hind Paw Swelling, Mean ± S.E. ([3]; 40 mg/kg p.o., 2 hours): 47.5 ± 4.0%
- Percent Inhibition of hind paw swelling ([3]; 40 mg/kg p.o., 2 hours): 28.6%
- Hind Paw Swelling, Mean ± S.E. ([3]; 40 mg/kg p.o., 3 hours): 51.2 ± 4.0%
- Percent Inhibition of hind paw swelling ([3]; 40 mg/kg p.o., 3 hours): 28.9%
- number of positive rats ([3]; 40 mg/kg p.o.): 7
- Hind Paw Swelling, Mean ± S.E. ([3]; 80 mg/kg p.o., 2 hours): 41.8 ± 2.3%
- Percent Inhibition of hind paw swelling ([3]; 80 mg/kg p.o., 2 hours): 37.2%
- Hind Paw Swelling, Mean ± S.E. ([3]; 80 mg/kg p.o., 3 hours): 43.9 ± 2.4%
- Percent Inhibition of hind paw swelling ([3]; 80 mg/kg p.o., 3 hours): 38.9%
- number of positive rats ([3]; 80 mg/kg p.o.): 9
- ED50 [3]: 24.3 mg/kg
- Inhibition in (%) of writhing ([4]; 25 mg/kg p.o.): 25.5%
- Number of Writhings/15 min., Mean ± S.E. ([4]; 25 mg/kg p.o.): 27.4 ± 3.3
- number of positive mice ([4]; 25 mg/kg p.o.): 2
- Inhibition in (%) of writhing ([4]; 50 mg/kg p.o.): 45.7%
- Number of Writhings/15 min., Mean ± S.E. ([4]; 50 mg/kg p.o.): 20.0 ± 1.5
- number of positive mice ([4]; 50 mg/kg p.o.): 4
- Inhibition in (%) of writhing ([4]; 100 mg/kg p.o.): 64.4%
- Number of Writhings/15 min., Mean ± S.E. ([4]; 100 mg/kg p.o.): 13.1 ± 1.9
- number of positive mice ([4]; 100 mg/kg p.o.): 8
- Inhibition in (%) of writhing ([4]; 200 mg/kg p.o.): 76.4%
- Number of Writhings/15 min., Mean ± S.E. ([4]; 200 mg/kg p.o.): 8.7 ± 1.6
- number of positive mice ([4]; 200 mg/kg p.o.): 10
- Inhibition in (%) of writhing ([4]; 400 mg/kg p.o.): 94.8%
- Number of Writhings/15 min., Mean ± S.E. ([4]; 400 mg/kg p.o.): 1.9 ± 0.8
- number of positive mice ([4]; 400 mg/kg p.o.): 10
- ED50 [4]: 50 mg/kg
- RASP (relative potency of inhibition of the test compound to aspirin) [2]: 0.6
